According to patent US7071197B2, “N,N-disubstituted diazocycloalkanes” (Recordati S.A., priority 2002, dated 2006):
Like-named read-outs stand apart in the source and are kept apart here.

Key:
[1] = target: T1, post-synaptic 5-HT1A receptors (Rattus norvegicus, UniProt P19327); assay: Inhibition of stereotypy (rhythmic forepaw treading) induced by 8-OH-DPAT in rats; format: in vivo; conditions: for inhibition at 1 mg/kg / inhibition at 3 mg/kg / inhibition at 10 mg/kg / inhibition at 0.01 mg/kg / inhibition at 0.03 mg/kg / inhibition at 0.1 mg/kg / inhibition at 0.3 mg/kg: rat; for inhibition at 1 mg/kg: 1 mg/kg p.o.; for inhibition at 3 mg/kg: 3 mg/kg p.o.; for inhibition at 10 mg/kg: 10 mg/kg p.o.; for inhibition at 0.01 mg/kg: 0.01 mg/kg i.v.; for inhibition at 0.03 mg/kg: 0.03 mg/kg i.v.; for inhibition at 0.1 mg/kg: 0.1 mg/kg i.v.
T1 construct: from tissue; host or cells: whole animal, male Sprague-Dawley rat (in vivo)
T1 sequence (P19327 1-422): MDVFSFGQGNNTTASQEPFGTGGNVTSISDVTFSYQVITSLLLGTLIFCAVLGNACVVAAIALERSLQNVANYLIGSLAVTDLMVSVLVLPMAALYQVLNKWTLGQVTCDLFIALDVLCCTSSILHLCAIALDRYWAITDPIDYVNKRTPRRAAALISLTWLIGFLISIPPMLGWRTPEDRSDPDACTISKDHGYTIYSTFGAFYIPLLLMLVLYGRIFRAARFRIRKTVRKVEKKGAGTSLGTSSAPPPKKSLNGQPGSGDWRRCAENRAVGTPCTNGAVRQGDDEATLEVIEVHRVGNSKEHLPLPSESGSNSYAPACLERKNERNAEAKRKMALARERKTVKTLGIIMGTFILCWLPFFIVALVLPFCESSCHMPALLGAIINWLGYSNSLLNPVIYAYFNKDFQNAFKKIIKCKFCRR
Description: The inhibitory effect of 5-HT1A-receptor antagonists on stereotyped forepaw treading induced in rats by subcutaneous injection of 8-OH-DPAT was evaluated by the method of Tricklebank (Tricklebank et al., Eur. J. Pharmacol., 117: 15, 1985) with minor modifications as described below.
Male Sprague-Dawley rats [Crl: CD® (SD) IGS BR] weighing 150–175 g from Charles River Italia were used. The animals were housed with free access to food and water and maintained on a forced 12-hour-light/12-hour-dark cycle at 22–24° C. of temperature. On the day of the experiment, the rats were placed singly in clear plastic containers, 10–15 minutes before administration of the vehicle or compounds to be tested. For evaluation of antagonistic activity after intravenous or oral administration, the compounds were administered 1 and 4 hours before induction of stereotypy by 8-OH-DPAT (1 mg/kg subcutaneously). Observation sessions lasted 30 seconds and began 3 minutes after 8-OH-DPAT treatment and were repeated every 3 minutes over a period of 15 minutes.
The appearance of the symptom induced by postsynaptic stimulation of 5-HT1A receptors was noted, and the intensity was scored using an intensity scale in which: 0=absent, 1=equivocal, 2=present and 3=intense. Behavioural scores for treated rats were accumulated throughout the observation time (5 observation periods) and expressed as mean values of 4 rats/dose. Change in mean values of treated animals in comparison with control (vehicle) group, expressed as per-cent inhibition, was used to quantify the antagonistic activity.

human α1d-adrenoceptor = target: T2, human α1d-adrenoceptor (Homo sapiens, UniProt P25100); assay: [3H]prazosin binding to cloned human α1-adrenoceptor subtypes (α1d); conditions: for Ki: [3H]prazosin, CHO cell membranes, read-out: Binding affinity (Ki, nM) α1d; for α1d/S-HT1A: selectivity: ratio of Ki at α1d and Ki at 5-HT1A
T2 construct: expressed in transfected cells
T2 sequence (P25100 1-572): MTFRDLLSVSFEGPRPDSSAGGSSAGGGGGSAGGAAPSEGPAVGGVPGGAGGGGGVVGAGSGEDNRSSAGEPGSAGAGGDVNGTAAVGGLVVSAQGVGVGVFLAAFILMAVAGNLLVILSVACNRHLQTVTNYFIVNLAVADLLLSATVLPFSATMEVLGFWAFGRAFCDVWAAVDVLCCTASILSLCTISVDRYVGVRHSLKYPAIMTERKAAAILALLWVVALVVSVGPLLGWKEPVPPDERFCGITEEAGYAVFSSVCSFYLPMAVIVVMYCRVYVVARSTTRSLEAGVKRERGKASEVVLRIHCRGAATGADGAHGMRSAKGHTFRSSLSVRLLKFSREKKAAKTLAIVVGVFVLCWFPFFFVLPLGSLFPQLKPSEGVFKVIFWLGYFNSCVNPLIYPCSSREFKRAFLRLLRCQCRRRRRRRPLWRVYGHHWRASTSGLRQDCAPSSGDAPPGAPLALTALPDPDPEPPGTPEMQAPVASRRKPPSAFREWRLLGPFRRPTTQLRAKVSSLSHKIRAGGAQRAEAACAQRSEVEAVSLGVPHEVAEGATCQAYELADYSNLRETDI
Description: Binding to cloned human α1-adrenoceptor subtypes was performed in membranes from CHO cells (chinese hamster ovary cells) transfected by electroporation with DNA expressing the gene encoding each α1-adrenoceptor subtype. Cloning and stable expression of the human α1-adrenoceptor gene was performed as previously described (Testa et al. Pharmacol. Comm., 6: 79–86,1995).
CHO cells were grown in suspension in Iscove's modified Dulbecco's medium, supplemented with 10% fetal calf serum and gentamicin (50 μg/ml), at 37° C. in 7% CO2 in an humidified incubator. Cells were collected by centrifugation, lised in ice-cold Tris 5 mM and EDTA 5 mM buffer (pH 7.4) and gently homogenised. Homogenates were centrifuged at 40000×g×20 min and pellets were resuspended in a small volume of ice-cold Tris 5 mM and EDTA 5 mM buffer (pH 7.4) and immediately frozen and stored at −80° C. until use.
CHO cell membranes were resuspended and incubated in 50 mM Tris, pH 7.4, with 0.2 nM [^3H]prazosin, in a final volume of 1.02 ml for 30 min at 25° C., in absence or presence of competing drugs. Non-specific binding was determined in the presence of 10 μM phentolamine. The incubation was stopped by rapid filtration through 0.2% polyethyleneimine pretreated Schleicher & Schuell GF52 filters using a Tomtec (PerkinElmer) cell harvester. The filters were washed with 3×1 ml of ice-cold Tris buffer, dried and the radioactivity was measured in a Betaplate (Wallac) liquid scintillation counter.
The inhibition of specific binding by the compounds was analysed to estimate the IC50 value by the non-linear curve-fitting program Allfit (De Lean et al. Am. J. Physiol. 235, E97-E102, 1978). The IC50 value is converted to an affinity constant (Ki) by the equation of Cheng & Prusoff (Biochem. Pharmacol. 22: 3099–3108, 1973).

[2] = after intravenous administration
[3] = iv, 0.3 mg/kg i.v., 1 h before 8-OH-DPAT
[4] = iv, 0.3 mg/kg i.v., 4 h before 8-OH-DPAT
[5] = po, 0.3 mg/kg p.o., 1 h before 8-OH-DPAT
[6] = po, 0.3 mg/kg p.o., 4 h before 8-OH-DPAT

Row | ED75 (equieffective dose inhibiting the forepaw treading by 75%) ([1]; 1 h p.o.) | ED75 (equieffective dose inhibiting the forepaw treading by 75%) ([1]; 4 h p.o.) | inhibition at 1 mg/kg ([1]; po, 1 h before 8-OH-DPAT) [%] | inhibition at 1 mg/kg ([1]; po, 4 h before 8-OH-DPAT) [%] | inhibition at 3 mg/kg ([1]; po, 1 h before 8-OH-DPAT) [%] | inhibition at 3 mg/kg ([1]; po, 4 h before 8-OH-DPAT) [%] | Ki (human α1d-adrenoceptor) [nM] | α1d/S-HT1A (human α1d-adrenoceptor) | ED75 (equieffective dose inhibiting the forepaw treading by 75%) ([1]; 1 h i.v.) | ED75 (equieffective dose inhibiting the forepaw treading by 75%) ([1]; 4 h i.v.) | potency in inhibiting forepaw treading, comparison [1, 2] | inhibition at 0.01 mg/kg ([1]; iv, 1 h before 8-OH-DPAT) [%] | inhibition at 0.01 mg/kg ([1]; iv, 4 h before 8-OH-DPAT) [%] | inhibition at 0.03 mg/kg ([1]; iv, 1 h before 8-OH-DPAT) [%] | inhibition at 0.03 mg/kg ([1]; iv, 4 h before 8-OH-DPAT) [%] | inhibition at 0.1 mg/kg ([1]; iv, 1 h before 8-OH-DPAT) [%] | inhibition at 0.1 mg/kg ([1]; iv, 4 h before 8-OH-DPAT) [%] | inhibition at 0.3 mg/kg [1, 3] [%] | inhibition at 0.3 mg/kg [1, 4] [%] | inhibition at 0.3 mg/kg [1, 5] [%] | Structure (SMILES) | other results
1 | 1 h p.o.: ED75 = 3.3 mg/kg/ | 4 h p.o.: ED75 = 4.0 mg/kg | 35 | 37 | 84 | 72 | 1 | 7.7 | – | – | – | – | – | – | – | – | – | – | – | – | COc1ccccc1N1CCN(CC[C@@H](c2ccccc2F)[C@H](O)C2CCCCC2)CC1 (racemic) [Ex. 1, 1-[(SR-RS)-4-cyclohexyl-4-hydroxy-3-(2-fluorophenyl)-butyl]-4-(2-methoxyphenyl)-piperazine] | inhibition at 10 mg/kg ([1]; po, 1 h before 8-OH-DPAT): 100%; inhibition at 10 mg/kg ([1]; po, 4 h before 8-OH-DPAT): 96%
2 | 1 h p.o.: ED75 = 2.1 mg/kg/ | – | 42 | 46 | 90 | 67 | 0.5 | 0.8 | 1 h i.v.: ED75 = 0.032 mg/kg/ | 4 h i.v.: ED75 = 0.138 mg/kg | practically equipotent | 41 | 26 | 82 | 54 | 100 | 72 | 100 | 85 | 8 | COc1ccccc1N1CCN(CC[C@H](c2ccccc2)[C@@H](O)C2CCCCC2)CC1 (racemic) [Ex. 5, 1-[(RS,SR)-4-Cyclohexyl-4-hydroxy-3-phenyl-butyl]-4-(2-methoxyphenyl)-piperazine, reference compound] | ED75 (equieffective dose inhibiting the forepaw treading by 75%) [1]: 4 h p.o.: ED75 = 4.6 mg/kg; inhibition at 0.3 mg/kg [1, 6]: 20%
3 | 1 h p.o.: ED75 = 1.7 mg/kg/ | 4 h p.o.: ED75 = 2.6 mg/kg | 58 | 38 | 92 | 85 | 1.2 | 3.2 | 1 h i.v.: ED75 = 0.038 mg/kg/ | 4 h i.v.: ED75 = 0.182 mg/kg | practically equipotent | 37 | 11 | 72 | 35 | 100 | 65 | 100 | 84 | 18 | COc1ccccc1N1CCN(CC[C@H](c2ccccc2F)[C@@H](O)C2CCCCC2)CC1 [Ex. 1Y, 1-[(3R,4S)-4-cyclohexyl-4-hydroxy-3-(2-fluorophenyl)-butyl]-4-(2-methoxyphenyl)-piperazine] | potency in inhibiting forepaw treading, comparison ([1]; after oral administration, in particular at four hours): more potent than Ex. 5; inhibition at 0.3 mg/kg [1, 6]: 18%
4 | – | – | – | – | – | – | 0.5 | 2.1 | 1 h i.v.: ED75 = 0.041 mg/kg/ | 4 h i.v.: ED75 = 0.152 mg/kg | practically equipotent | 39 | 6 | 65 | 49 | 100 | 63 | 100 | 89 | – | COc1ccccc1N1CCN(CC[C@H](c2ccccc2F)[C@H](O)C2CCCCC2)CC1 [Ex. 2X, 1-[(3R,4R)-4-cyclohexyl-4-hydroxy-3-(2-fluorophenyl)-butyl]-4-(2-methoxyphenyl)-piperazine] | –
